In PubChem BioAssay AID248 (DTP/NCI, 2004):
Where “and” joins values, the source holds several entries; their conditions need not be identical. Equal values may be shown once. Toxic doses and inconclusive results are not listed.

System: L1210 leukemia ip in BDF1 mice, survival T/C
Test: NCI In Vivo Anticancer Drug Screen. Data for tumor model L1210 Leukemia (intraperitoneal) in B6D2F1 (BDF1) mice
Conditions: endpoint: mean survival time, higher = longer survival
Method in brief: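 Mice bearing the transplanted tumor received compound or vehicle. Survival of the treated group was divided by that of the vehicle-treated control group to give the ratio.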

O=[N+]([O-])c1ccc2c(c1)-c1ccccc1/C2=C1\c2ccccc2-c2cc([N+](=O)[O-])ccc21
T/C (dose: 100.0 mg/kg/injection, schedule: Q01DX005 (ip), vehicle: Klucel (hydroxypropylcellulose) (HPC)): 105 % of control | T/C (dose: 100.0 mg/kg/injection, schedule: Q04DX002 (ip), vehicle: Klucel (hydroxypropylcellulose) (HPC)): 90 % of control | T/C (dose: 200.0 mg/kg/injection, schedule: Q01DX005 (ip), vehicle: Klucel (hydroxypropylcellulose) (HPC)): 91 % of control | T/C (dose: 200.0 mg/kg/injection, schedule: Q04DX002 (ip), vehicle: Klucel (hydroxypropylcellulose) (HPC)): 104 % of control | T/C (dose: 400.0 mg/kg/injection, schedule: Q01DX005 (ip), vehicle: Klucel (hydroxypropylcellulose) (HPC)): 91 % of control | T/C (dose: 400.0 mg/kg/injection, schedule: Q04DX002 (ip), vehicle: Klucel (hydroxypropylcellulose) (HPC)): 96 % of control

C#CCNc1ccccc1
T/C (dose: 100.0 mg/kg/injection, schedule: Q04DX002 (sc), vehicle: olive oil, sesame oil, peanut oil): 102 % of control | T/C (dose: 200.0 mg/kg/injection, schedule: Q04DX002 (sc), vehicle: olive oil, sesame oil, peanut oil): 102 % of control | T/C (dose: 400.0 mg/kg/injection, schedule: Q04DX002 (sc), vehicle: olive oil, sesame oil, peanut oil): 109 % of control

CCCCCCOC(=O)C(N)Cc1ccc(O)c(N(CCCl)CCCl)c1 (centres undefined)
T/C (dose: 0.01 mg/kg/injection, schedule: Q01DX009 (ip), vehicle: saline): 123 % of control | T/C (dose: 0.12 mg/kg/injection, schedule: Q01DX001 (ip), vehicle: saline): 159 % of control | T/C (dose: 0.3 mg/kg/injection, schedule: Q01DX009 (ip), vehicle: saline): 163 % of control | T/C (dose: 0.5 mg/kg/injection, schedule: Q01DX001 (ip), vehicle: saline): 313 % of control | T/C (dose: 0.6 mg/kg/injection, schedule: Q01DX009 (ip), vehicle: saline): 221 % of control | T/C (dose: 1.0 mg/kg/injection, schedule: Q01DX001 (ip), vehicle: saline): 120 % of control | T/C (dose: 1.1 mg/kg/injection, schedule: Q01DX009 (ip), vehicle: saline): 210 % of control | T/C (dose: 2.2 mg/kg/injection, schedule: Q01DX001 (ip), vehicle: saline): 198 % of control | T/C (dose: 2.5 mg/kg/injection, schedule: Q01DX001 (ip), vehicle: saline): 163 % of control | T/C (dose: 3.3 mg/kg/injection, schedule: Q01DX001 (ip), vehicle: saline): 153 % of control | T/C (dose: 5.0 mg/kg/injection, schedule: Q01DX001 (ip), vehicle: saline): 157 % of control and 236 % of control | T/C (dose: 1.0 micrograms/kg/injection, schedule: Q01DX009 (ip), vehicle: saline): 104 % of control | T/C (dose: 8.0 micrograms/kg/injection, schedule: Q01DX009 (ip), vehicle: saline): 189 % of control

COc1cc([N+](=O)[O-])c2ncccc2c1
T/C (dose: 50.0 mg/kg/injection, schedule: Q01DX009 (ip), vehicle: Klucel (hydroxypropylcellulose) (HPC)): 102 % of control | T/C (dose: 100.0 mg/kg/injection, schedule: Q01DX009 (ip), vehicle: Klucel (hydroxypropylcellulose) (HPC)): 105 % of control | T/C (dose: 100.0 mg/kg/injection, schedule: Q04DX003 (ip), vehicle: Klucel (hydroxypropylcellulose) (HPC)): 94 % of control | T/C (dose: 200.0 mg/kg/injection, schedule: Q01DX009 (ip), vehicle: Klucel (hydroxypropylcellulose) (HPC)): 104 % of control | T/C (dose: 200.0 mg/kg/injection, schedule: Q04DX003 (ip), vehicle: Klucel (hydroxypropylcellulose) (HPC)): 91 % of control | T/C (dose: 400.0 mg/kg/injection, schedule: Q01DX009 (ip), vehicle: Klucel (hydroxypropylcellulose) (HPC)): 115 % of control | T/C (dose: 400.0 mg/kg/injection, schedule: Q04DX003 (ip), vehicle: Klucel (hydroxypropylcellulose) (HPC)): 104 % of control

O=Cc1ccc(O)cn1
T/C (dose: 100.0 mg/kg/injection, schedule: Q04DX003 (ip), vehicle: saline): 92 % of control | T/C (dose: 200.0 mg/kg/injection, schedule: Q04DX003 (ip), vehicle: saline): 87 % of control | T/C (dose: 400.0 mg/kg/injection, schedule: Q04DX003 (ip), vehicle: saline): 92 % of control

CCOC(=O)C(C#N)C(C(C)=O)C(=O)OCC (centres undefined)
T/C (dose: 25.0 mg/kg/injection, schedule: Q01DX009 (ip), vehicle: saline sonified): 120 % of control | T/C (dose: 50.0 mg/kg/injection, schedule: Q01DX009 (ip), vehicle: saline sonified): 124 % of control | T/C (dose: 75.0 mg/kg/injection, schedule: Q01DX001 (ip), vehicle: other): 94 % of control | T/C (dose: 100.0 mg/kg/injection, schedule: Q01DX009 (ip), vehicle: saline sonified): 104 % of control | T/C (dose: 100.0 mg/kg/injection, schedule: Q04DX003 (ip), vehicle: saline sonified): 110 % of control | T/C (dose: 150.0 mg/kg/injection, schedule: Q01DX001 (ip), vehicle: other): 102 % of control | T/C (dose: 300.0 mg/kg/injection, schedule: Q01DX001 (ip), vehicle: other): 100 % of control
